Experimental data: publication PMC10786269 (Proceedings of the National Academy of Sciences of the …, 2024)
Where a name gives a salt, the structure may show the parent alone.

Columns and labels:
[1] = biological target: T1, Polyphosphate kinase-1 (PPK-1, Rv2984) (Mycobacterium tuberculosis, UniProt P9WHV9); assay: microscale thermophoresis; assay type: binding
T1 sequence (P9WHV9 1-742): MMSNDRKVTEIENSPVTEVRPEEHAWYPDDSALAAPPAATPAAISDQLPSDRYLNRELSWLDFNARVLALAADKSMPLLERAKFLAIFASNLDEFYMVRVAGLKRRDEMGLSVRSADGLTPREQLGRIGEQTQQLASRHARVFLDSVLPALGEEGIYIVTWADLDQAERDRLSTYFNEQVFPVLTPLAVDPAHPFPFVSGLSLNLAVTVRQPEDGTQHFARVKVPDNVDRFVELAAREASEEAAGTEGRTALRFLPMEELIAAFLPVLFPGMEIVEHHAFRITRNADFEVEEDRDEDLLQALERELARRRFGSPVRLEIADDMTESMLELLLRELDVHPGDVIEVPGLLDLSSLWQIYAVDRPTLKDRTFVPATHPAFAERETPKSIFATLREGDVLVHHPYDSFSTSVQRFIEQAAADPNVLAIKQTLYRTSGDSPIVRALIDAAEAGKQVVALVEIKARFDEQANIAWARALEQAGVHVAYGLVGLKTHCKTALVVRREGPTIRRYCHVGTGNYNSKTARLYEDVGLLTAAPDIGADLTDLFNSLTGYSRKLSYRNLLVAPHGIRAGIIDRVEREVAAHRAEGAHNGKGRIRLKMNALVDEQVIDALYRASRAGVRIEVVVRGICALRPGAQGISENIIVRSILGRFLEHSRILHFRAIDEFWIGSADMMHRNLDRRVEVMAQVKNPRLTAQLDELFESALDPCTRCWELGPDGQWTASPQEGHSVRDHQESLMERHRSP

[2] = biological target: T1, Polyphosphate kinase-1 (PPK-1, Rv2984); assay type: biochemical

**Q.** `O=C(c1ccc(OCCN2CCCCC2)cc1)c1c(-c2ccc(O)cc2)sc2cc(O)ccc12` [Cpd-11, raloxifene hydrochloride] was tested. Which Kd [1] did it give?
**A.** 40 µM

**Q.** For `O=C1OC2(c3ccccc31)c1ccc(O)c(O)c1Oc1c2ccc(O)c1O` [gallein], which “inhibition of PPK-1 ATP and polyP synthesis (SI Appendix Fig. S6 A-C)” value [2] is on record?
**A.** gallein inhibited both ATP and polyP synthesis activity associated with the PPK-1 homolog from M. tuberculosis
